Patent publication US7998974B2, “Fused heterocyclic compounds and their use as sirtuin modulators” (Sirtris Pharmaceuticals, Inc., priority 2005, dated 2011)
pEC50: −log10 of the molar value.

Assays:
SIRT1 = target: T1, SIRT1 (Homo sapiens, UniProt Q96EB6); test: Fluorescence polarization or mass spectrometry based assay to identify modulators of SIRT1 activity; assay type: biochemical; details: activation of SIRT1 (Table 3); read-out: ED50 (the source's name);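 also: deacetylation of a fluorophore-tagged p53-derived acetyl peptide by SIRT1, detected as fluorescence polarization after trypsin cleavage and streptavidin binding, compounds tested at 11 doses from 0.7 to 100 µM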
T1 sequence (Q96EB6 1-747): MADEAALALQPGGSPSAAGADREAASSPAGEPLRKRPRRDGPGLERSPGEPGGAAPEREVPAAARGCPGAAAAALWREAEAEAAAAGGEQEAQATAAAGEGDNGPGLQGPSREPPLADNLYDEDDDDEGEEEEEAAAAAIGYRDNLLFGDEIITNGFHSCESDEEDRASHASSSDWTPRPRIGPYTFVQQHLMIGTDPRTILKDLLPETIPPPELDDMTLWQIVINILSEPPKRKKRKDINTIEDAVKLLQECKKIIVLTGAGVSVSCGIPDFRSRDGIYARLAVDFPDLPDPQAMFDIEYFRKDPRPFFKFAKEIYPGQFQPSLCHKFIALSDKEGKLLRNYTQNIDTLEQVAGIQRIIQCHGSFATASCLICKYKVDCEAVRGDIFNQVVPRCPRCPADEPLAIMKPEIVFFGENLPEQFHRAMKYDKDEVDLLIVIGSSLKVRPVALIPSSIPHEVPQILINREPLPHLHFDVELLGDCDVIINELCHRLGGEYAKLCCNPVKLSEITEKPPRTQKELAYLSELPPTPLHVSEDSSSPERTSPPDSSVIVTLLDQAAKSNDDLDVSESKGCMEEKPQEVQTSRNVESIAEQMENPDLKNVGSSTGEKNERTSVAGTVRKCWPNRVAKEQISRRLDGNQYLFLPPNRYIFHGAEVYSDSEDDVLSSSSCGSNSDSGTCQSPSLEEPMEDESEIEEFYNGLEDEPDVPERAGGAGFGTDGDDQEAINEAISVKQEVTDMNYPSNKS

human SIRT3 = target: T2, human SIRT3 (Homo sapiens, UniProt Q9NTG7); test: Fluorescence polarization assay to identify modulators of SIRT3 activity; assay type: biochemical; details: activation of SIRT3 (Table 5); read-out: ED50 (the source's name)
T2 sequence (Q9NTG7 102-399): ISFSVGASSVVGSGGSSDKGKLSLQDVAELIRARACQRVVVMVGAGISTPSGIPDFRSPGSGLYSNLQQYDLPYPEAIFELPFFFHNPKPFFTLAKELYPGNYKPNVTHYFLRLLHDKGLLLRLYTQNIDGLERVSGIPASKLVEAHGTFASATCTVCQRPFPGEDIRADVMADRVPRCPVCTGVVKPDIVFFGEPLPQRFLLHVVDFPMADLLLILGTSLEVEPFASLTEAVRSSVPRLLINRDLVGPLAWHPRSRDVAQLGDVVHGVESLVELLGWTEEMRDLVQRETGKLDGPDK
Source text: A fluorescence polarization assay was used to identify modulators of SIRT3 activity. The same assay may be used to identify modulators of any sirtuin protein. The assay utilizes a peptide substrate based on a fragment of Histone H4, a known sirtuin deacetylation target. The substrate contains a peptide having 14 amino acid residues as follows: Biotin-GASSHSK(Ac)VLK(MR121) (SEQ ID NO: 3) wherein K(Ac) is an acetylated lysine residue. The peptide is labeled with the fluorophore MR121 (excitation 635 nm/emission 680 nm) at the C-terminus and biotin at the N-terminus.
The peptide substrate is exposed to a sirtuin protein in the presence of NAD^+ to allow deacetylation of the substrate and render it sensitive to cleavage by trypsin. Trypsin is then added and the reaction is carried to completion (i.e., the deacetylated substrate is cleaved) releasing the MR121 fragment. Streptavidin is then added to the reaction where it can bind both the uncleaved substrate (i.e., any remaining acetylated substrate) and the non-fluorescent portion of the cleaved peptide substrate (i.e., the biotin containing fragment). The fluorescence polarization signal observed for the full length peptide substrate bound to streptavidin is higher than the fluorescence polarization signal observed for the released MR121 C-terminal fragment. Therefore, the fluorescence polarization obtained is inversely proportional to the level of deacetylation (e.g., the signal is inversely proportional to the activity of the sirtuin protein). Results are read on a microplate fluorescence polarization reader (Molecular Devices Spectramax MD) with appropriate excitation and emission filters.
The fluorescence polarization assays may be conducted as follows: 0.5 μM peptide substrate and 50 μM βNAD^+ is incubated with 2 nM of SIRT3 for 60 minutes at 37° C. in a reaction buffer (25 mM Tris-acetate pH8, 137 mM Na—Ac, 2.7 mM K—Ac, 1 mM Mg—Ac, 0.1% Pluronic F127, 10 mM CaCl2, 1 mM TCEP, 0.025% BSA). Test compounds are solubilized in DMSO and are added to the reaction at 11 concentrations ranging from 0.7 μM to 100 μM. The SIRT3 protein used in the assays corresponded to amino acid residues 102-399 of human SIRT3 with an N-terminal His-tag. The protein was overexpressed in E. coli and purified on a nickel chelate column using standard techniques. After the 60 minute incubation with SIRT3, nicotinamide is added to the reaction to a final concentration of 3 mM to stop the deacetylation reaction and 0.5 μg/mL of trypsin is added to cleave the deacetylated substrate. The reaction is incubated for 30 minutes at 37° C. in the presence of 1 mM streptavidin. Fluorescent polarization is determined at excitation (650 nm) and emissions (680 nm) wavelengths. The level of activity of the sirtuin protein in the presence of the various concentrations of test compound are then determined and may be compared to the level of activity of the sirtuin protein in the absence of the test compound, and/or the level of activity of the sirtuin proteins in the negative control (e.g., level of inhibition) and positive control (e.g., level of activation) described below.
A control for activation of sirtuin activity is conducted using 0.5 μg/mL of sirtuin protein to reach baseline deacetylation of the substrate (e.g., to determine normalized sirtuin activity).

pEC50 (SIRT1) | pEC50 (human SIRT3) | SMILES
4.00 to 4.29 | > 4.30 | N#Cc1ccc(-c2nc3c(C(=O)NC(CC(=O)O)C4CCCCC4)cccn3c2NCc2ccccc2)cc1 (centres unmarked) [Compound 32]
4.00 to 4.29 | 3.82 to 4.00 | CC(=O)Nc1ccc(-c2nc3c(C(=O)NC(CC(=O)O)C4CCCCC4)cccn3c2NCc2ccccc2)cc1 (centres unmarked) [Compound 37]
> 4.30 | 4.00 to 4.29 | CC(NC(=O)c1cccn2c(NCC3CCCO3)c(-c3ccc(Cl)cc3)nc12)C(=O)NCCC#N (centres unmarked) [Compound 43]
4.00 to 4.29 | < 3.82 | CC(NC(=O)c1cccn2c(NCC3CCCO3)c(-c3ccc(N(C)C)cc3)nc12)C(=O)NCCC#N (centres unmarked) [Compound 45]
